Measured values: patent publication US5817617A, “Selectin and pertussis toxin derived peptides and uses thereof” (The Rockefeller University, priority 1994, dated 1998)
Where a SMILES comes first, the peptide text is derived from it.

Tests used:
Type in all cases: cell-based
CR3 = assay: Assay 3: upregulation of integrins (CR3) on the surface of a neutrophil, detected with EC3bi (FIG. 5); details: for ability to upregulate integrins on leukocytes, assay 3 (in words): peptides of Table 2; for # of cells ASSAY 3: peptide at 1 mg/ml, upregulation of integrins on neutrophil
Procedure: EC3bi is an erythrocyte coated with the complement component C3bi and is used to detect the presence of CR3 on the surface of a leukocyte according to the procedure of Wright et al (supra).
The test was conducted with separate proteins in tissue culture as in the experiment described in connection with the previous figure.
Assay 3 measures upregulation of integrins on the surface of a neutorphil as described in FIG. 5. Values ±50% are significant.

endothelial cells = assay: Assay 2: inhibition of adherence of a neutrophil to a monolayer of endothelial cells; details: peptide at 1 mg/ml; for activity in Assays 1 or 2 (in words): adherence of leukocytes to selectins or endothelial cells bearing selectins; for % of inhibition ASSAY 2: neutrophil on monolayer of endothelial cells
Description: Assay 2 is inhibition of adherence of a neutrophil to a monolayer of endothelial cells as described by Lo et al J. Exp. Med. 173:1493-1500 (1991). Values ±50% inhibition are significant.

ELAM = assay: Assay 1: inhibition of adherence of neutrophils to ELAM-coated surfaces (FIG. 4); details: for % of inhibition ASSAY 1: peptide at 1 mg/ml, neutrophils on ELAM-coated surfaces
Procedure: In the study, the proteins PT, B-oligomer, S2, S3, S2/S3 and S3/S2 were taken up in an isotonic buffered tissue culture medium to a concentration of 50 ug/ml and the ability of each of them to inhibit adhesion of neutrophils to ELAM or GMP140 was determined as described by Wright et al J. Exp. Med. 158:2016 (1983). The buffer was employed as the control and each protein studied was compared to the control for the ability to decrease adhesion capacity.
Assay 1 is inhibition of adherence of enutrophils to ELAM-coated surfaces as described in connection with FIG. 4. Values ±20% inhibition are significant.

Compound	ability to upregulate integrins on leukocytes, assay 3 (in words) (CR3)	activity in Assays 1 or 2 (in words) (endothelial cells)	inhibition of neutrophil/leukocyte adherence to ELAM (ELAM; protein at 50 ug/ml, compared to buffer control) [%]	% of inhibition ASSAY 1 (ELAM)	# of cells ASSAY 3 (CR3)	% of inhibition ASSAY 2 (endothelial cells) [%]
CC(C)C[C@H](NC(=O)[C@H](Cc1ccc(O)cc1)NC(=O)[C@@H](NC(=O)[C@H](CCC(N)=O)NC(=O)[C@H](CC(C)C)NC(=O)[C@H](CCC(=O)O)NC(=O)[C@H](C)NC(=O)[C@H](CC(N)=O)NC(=O)CNC(=O)[C@H](CC(C)C)NC(=O)[C@H](CCC(=O)O)NC(=O)[C@H](C)NC(=O)[C@@H](NC(=O)[C@@H](NC(=O)[C@H](CC(C)C)NC(=O)[C@H](C)N)[C@@H](C)O)C(C)C)[C@@H](C)O)C(=O)O [SEQ ID NO:26, ALTVAELGNAELQTYL] (H-ALTVAELGNAELQTYL-OH)	ability to upregulate integrins on leukocytes	active				
S3 with deletion 1: S3 protein from which the VA or YL region of the motif was deleted (TRALTRGNAELQTYLRQITP)			16			
CC(C)C[C@H](NC(=O)[C@H](CC(=O)O)NC(=O)CNC(=O)[C@H](CO)NC(=O)CNC(=O)[C@H](CCCNC(=N)N)NC(=O)[C@H](CC(C)C)NC(=O)[C@H](CCC(=O)O)NC(=O)[C@H](C)NC(=O)[C@@H](N)C(C)C)C(=O)N[C@@H](CCC(N)=O)C(=O)N[C@@H](CCC(=O)O)C(=O)N[C@@H](Cc1ccc(O)cc1)C(=O)N[C@@H](CC(C)C)C(=O)N[C@@H](CCCNC(=N)N)C(=O)N[C@@H](Cc1c[nH]cn1)C(=O)N[C@H](C(=O)N[C@H](C(=O)N[C@@H](CCCNC(=N)N)C(=O)NCC(=O)N[C@@H](Cc1c[nH]c2ccccc12)C(=O)N[C@@H](CO)C(=O)O)[C@@H](C)O)C(C)C [SEQ ID NO:34]	does not share this property			22-33%	18 # of cells	
CC[C@H](C)[C@H](NC(=O)[C@H](C)NC(=O)[C@@H](N)C(C)C)C(=O)N[C@@H](CCC(N)=O)C(=O)N[C@@H](CC(N)=O)C(=O)N[C@@H](CCCCN)C(=O)N[C@@H](CCC(=O)O)C(=O)N[C@@H](CCC(=O)O)C(=O)N[C@H](C(=O)N[C@@H](CCC(=O)O)C(=O)N[C@@H](Cc1ccc(O)cc1)C(=O)N[C@@H](CC(C)C)C(=O)N[C@@H](CC(N)=O)C(=O)N[C@@H](CO)C(=O)N[C@H](C(=O)N[C@@H](CC(C)C)C(=O)N[C@@H](CO)C(=O)N[C@@H](Cc1ccc(O)cc1)C(=O)N[C@@H](CO)C(=O)O)[C@@H](C)CC)[C@@H](C)CC [SEQ ID NO:15, VAIQNKEEIEYLNSILSYS] (H-VAIQNKEEIEYLNSILSYS-OH)	ability to upregulate integrins on leukocytes			22-52%	71 # of cells	
CC[C@H](C)[C@H](NC(=O)[C@H](C)NC(=O)[C@@H](N)C(C)C)C(=O)N[C@@H](CCC(N)=O)C(=O)N[C@@H](CC(N)=O)C(=O)N[C@@H](CCCCN)C(=O)N[C@@H](CC(N)=O)C(=O)N[C@@H](CCC(=O)O)C(=O)N[C@H](C(=O)N[C@@H](CC(=O)O)C(=O)N[C@@H](Cc1ccc(O)cc1)C(=O)N[C@@H](CC(C)C)C(=O)N[C@@H](CC(N)=O)C(=O)N[C@@H](CCCCN)C(=O)N[C@H](C(=O)N[C@@H](CC(C)C)C(=O)N1CCC[C@H]1C(=O)N[C@@H](Cc1ccc(O)cc1)C(=O)N[C@@H](Cc1ccc(O)cc1)C(=O)N[C@@H](CO)C(=O)O)C(C)C)[C@@H](C)CC [SEQ ID NO:33] (H-VAIQNKNEIDYLNKVLPYYS-OH)	ability to upregulate integrins on leukocytes			3-14%	113 # of cells	
CC[C@H](C)[C@H](NC(=O)[C@H](CCC(N)=O)NC(=O)[C@H](CCCNC(=N)N)NC(=O)[C@H](CC(C)C)NC(=O)[C@H](Cc1ccc(O)cc1)NC(=O)[C@@H](NC(=O)[C@H](CCC(N)=O)NC(=O)[C@H](CC(C)C)NC(=O)[C@H](CCC(=O)O)NC(=O)[C@H](C)N)[C@@H](C)O)C(=O)N[C@H](C(=O)N1CCC[C@H]1C(=O)NCC(=O)N[C@@H](Cc1c[nH]c2ccccc12)C(=O)N[C@@H](CO)C(=O)O)[C@@H](C)O [SEQ ID NO:32, AELQTYLRQITPGWS] (H-AELQTYLRQITPGWS-OH)				0-18%	122 # of cells	
CC(C)C[C@H](NC(=O)[C@H](Cc1ccc(O)cc1)NC(=O)[C@H](CCC(=O)O)NC(=O)[C@H](CCC(N)=O)NC(=O)[C@H](CC(C)C)NC(=O)[C@H](CC(=O)O)NC(=O)CNC(=O)[C@H](CO)NC(=O)CNC(=O)[C@H](CC(C)C)NC(=O)[C@H](CCC(=O)O)NC(=O)[C@H](C)NC(=O)[C@@H](NC(=O)[C@@H](NC(=O)[C@H](CC(C)C)NC(=O)[C@H](C)N)[C@@H](C)O)C(C)C)C(=O)O [SEQ ID NO:36, ALTVAELGSGDLQEYL] (H-ALTVAELGSGDLQEYL-OH)	ability to upregulate integrins on leukocytes	active			232 # of cells	80
CC[C@H](C)[C@H](NC(=O)[C@H](C)NC(=O)[C@@H](N)C(C)C)C(=O)N[C@@H](CCC(N)=O)C(=O)N[C@@H](CC(N)=O)C(=O)N[C@@H](CCCCN)C(=O)N[C@@H](C)C(=O)N[C@@H](CCC(=O)O)C(=O)N[C@H](C(=O)N[C@@H](CCC(=O)O)C(=O)N[C@@H](Cc1ccc(O)cc1)C(=O)N[C@@H](CC(C)C)C(=O)N[C@@H](CCC(=O)O)C(=O)N[C@@H](CCCCN)C(=O)N[C@H](C(=O)N[C@@H](CC(C)C)C(=O)N1CCC[C@H]1C(=O)N[C@@H](Cc1ccccc1)C(=O)N[C@@H](CO)C(=O)O)[C@@H](C)O)[C@@H](C)CC [SEQ ID NO:31, VAIQNKAEIEYLEKTLPFS] (H-VAIQNKAEIEYLEKTLPFS-OH)	ability to upregulate integrins on leukocytes			23-31%	163 # of cells	
CC[C@H](C)[C@H](NC(=O)[C@H](C)NC(=O)[C@@H](NC(=O)[C@H](CC(C)C)NC(=O)[C@@H](N)[C@@H](C)O)C(C)C)C(=O)N[C@@H](CCC(N)=O)C(=O)N[C@@H](CC(N)=O)C(=O)N[C@@H](CCCCN)C(=O)N[C@@H](CCC(=O)O)C(=O)N[C@@H](CCC(=O)O)C(=O)N[C@H](C(=O)N[C@@H](CCC(=O)O)C(=O)N[C@@H](Cc1ccc(O)cc1)C(=O)N[C@@H](CC(C)C)C(=O)O)[C@@H](C)CC [SEQ ID NO:30, TLVAIQNKEEIEYL] (H-TLVAIQNKEEIEYL-OH)	ability to upregulate integrins on leukocytes				243 # of cells	80
CC(C)C[C@H](NC(=O)[C@H](CC(=O)O)NC(=O)CN)C(=O)N[C@@H](CCC(N)=O)C(=O)N[C@@H](CCC(=O)O)C(=O)N[C@@H](Cc1ccc(O)cc1)C(=O)N[C@@H](CC(C)C)C(=O)N[C@@H](CCCNC(=N)N)C(=O)N[C@@H](Cc1c[nH]cn1)C(=O)N[C@H](C(=O)N[C@H](C(=O)N[C@@H](CCCNC(=N)N)C(=O)NCC(=O)N[C@@H](Cc1c[nH]c2ccccc12)C(=O)N[C@@H](CO)C(=O)O)[C@@H](C)O)C(C)C [SEQ ID NO:35, GDLQEYLRHVTRGWS]				0-14%	104 # of cells	
CC[C@H](C)[C@H](NC(=O)[C@H](C)NC(=O)[C@@H](NC(=O)[C@H](CC(C)C)NC(=O)[C@H](CC(=O)O)NC(=O)[C@@H](N)[C@@H](C)O)C(C)C)C(=O)N[C@@H](CCC(N)=O)C(=O)N[C@@H](CC(N)=O)C(=O)N[C@@H](CCCCN)C(=O)N[C@@H](C)C(=O)N[C@@H](CCC(=O)O)C(=O)N[C@H](C(=O)N[C@@H](CCC(=O)O)C(=O)N[C@@H](Cc1ccc(O)cc1)C(=O)N[C@@H](CC(C)C)C(=O)O)[C@@H](C)CC [SEQ ID NO:19, TDLVAIQNKAEIEYL] (H-TDLVAIQNKAEIEYL-OH)	ability to upregulate integrins on leukocytes				104 # of cells	80
CC[C@H](C)[C@H](NC(=O)[C@H](CO)NC(=O)[C@H](CC(N)=O)NC(=O)[C@H](CC(C)C)NC(=O)[C@H](Cc1ccc(O)cc1)NC(=O)[C@H](CCC(=O)O)NC(=O)[C@@H](NC(=O)[C@H](CCC(=O)O)NC(=O)[C@H](CCC(=O)O)NC(=O)[C@@H](N)CCCCN)[C@@H](C)CC)C(=O)N[C@@H](CC(C)C)C(=O)N[C@@H](CO)C(=O)N[C@@H](Cc1ccc(O)cc1)C(=O)N[C@@H](CO)C(=O)O [SEQ ID NO:29, KEEIEYLNSILSYS] (H-KEEIEYLNSILSYS-OH)				0-2%	73 # of cells	
